Measured values taken from PubChem BioAssay AID2305 (GlaxoSmithKline (GSK), 2010).
pIC50: −log10 of the molar value. Several values for one entry are separate records, joined by “and”; a condition that tells them apart may be missing. Equal values may be shown once.

The compounds below were run on P. falciparum 3D7 growth, pLDH absorbance (assay: P. falciparum 3D7 growth inhibition, dose response, strain 3D7 (AID 2305)).

SMILES	pIC50
CCOC(=O)[C@H](Cc1cc([N+](=O)[O-])c(Oc2ccc(OC)c(Cc3ccc(OC)c(C(C)C)c3)c2)c([N+](=O)[O-])c1)NC(=O)C(F)(F)F	6.01
Oc1ccc(Cl)cc1CN1CCCC(COC(c2ccc(F)cc2)c2ccc(F)cc2)C1 (configuration not stated)	6.17
c1cc(CNCCc2ccncc2)cc(-c2ccc(-c3nc4ccccc4[nH]3)s2)c1	6.47
COc1cc2sc(=NC(=O)c3cccc([N+](=O)[O-])c3)n(C)c2cc1OC	6.14
O=C(/C=C/c1ccc(Cl)c(Cl)c1)NC1CCC(CN2CCC(c3c[nH]c4ccc(O)cc34)CC2)CC1 (configuration not stated)	6.85 and 6.38
CN1CCN(Cc2cccc(-c3ccc4c(Nc5ccc(Oc6cccnc6)cc5)ccnc4c3)c2)CC1	6.72
CN(C)CC(=O)Nc1cccc(Nc2nccc(NCC(O)c3ccccc3)n2)c1 (configuration not stated)	6.01
CCOc1cc(C)ccc1C1CCN(CCCCNC(=O)c2cnc(-c3ccc(C(F)(F)F)cc3)[nH]2)CC1	6.11
CCc1nc2ccc(C(=O)OC)nc2n1Cc1ccc2oc(-c3ccccc3N)c(Br)c2c1	6.09
CC(=O)Nc1cccc(-c2cnc(N)c3cc(-c4ccc5c(c4)OCO5)ccc23)c1	6.31
COc1cccc(CNC(=O)c2cc(CNCc3ccccc3)ccc2-c2cccc(CNCc3ccc(-c4ccccc4)cc3)c2)c1	6.07
CS(=O)(=O)CCNCc1cc(-c2cc3ncnc(Nc4ccc(OCc5cccc(F)c5)c(Cl)c4)c3s2)cs1	6.48
CON(C)C(=O)[C@@H](CCCCNC(=O)OCc1ccccc1)NC(=O)OC(C)(C)C	6.72
CCCc1cc(=O)[nH]c(-n2nc(C)cc2NC(=O)C(CC)c2ccccc2)n1 (configuration not stated)	6.03
CCN(CC)CCOC(=O)c1ccc(NC(=O)c2cn(-c3ccccc3)nc2-c2cccs2)cc1	6.42
COc1ccc(CNCc2ccsc2)cc1-c1ccc(OC)c(S(=O)(=O)NCCN2CCCC2)c1	6.04
CC(C)C[C@H](NC(=O)c1cc2ccccc2s1)C(=O)N[C@H]1CCN(Cc2ccc(OCCN3CCNCC3)c3ccccc23)C1	5.85
Clc1cc(Nc2ncnc3sc(C#C[C@H]4CCCN4)cc23)ccc1OCc1cccnc1Cl	6.24
Nc1ccnc(N2CCC(CCOc3cc(C(F)(F)F)nc4c(C(F)(F)F)cccc34)CC2)c1	6.10
CCCCCc1cc(O)c2c(c1)OC(C)(C)CC2C1=CCN(Cc2ccccc2)CC1 (configuration not stated)	6.11
CN1CCN(c2nc(NCCNc3ccc([N+](=O)[O-])cc3)c3ccccc3n2)CC1	5.88
O=S(=O)(c1ccc(OCc2ccc(Cl)cc2)cc1)c1cc2c(cc1O)CCN(C1CCC1)CC2	6.03
CC(C)Nc1nc(NCCc2cnc[nH]2)nc(NCc2cccc3ccccc23)n1	6.00
CN1CCC(C(=O)N(Cc2ccc(-c3ccc(CNCCc4ccc(S(C)(=O)=O)cc4)cn3)cc2)C2CCN(Cc3ccccc3)CC2)CC1	6.17

SMILES	pIC50
CC(C)(C)CC(C)(C)c1ccc(O)c(C(=O)Nc2ccc([N+](=O)[O-])cc2)c1	6.11
Cc1nc2ccccc2c(=O)n1N=Cc1ccccc1[N+](=O)[O-]	6.66
CCCC(=O)NC(c1ccc(C(C)C)cc1)c1ccc2cccnc2c1O (configuration not stated)	6.03
O=C(Nc1cccc(CN2CCCN(Cc3ccccc3)CC2)c1)c1ccc(-c2ccccc2)cc1	5.89
N#Cc1ccc2[nH]cc(C(=O)CCCCCN(Cc3ccccc3)Cc3ccccc3)c2c1	6.10
COc1ccc(-c2csc3ncnc(Cl)c23)cc1OC	6.11
COc1ccc(C(=O)COc2cccc(/C=C/C(=O)O)c2)cc1OC	5.88
Cc1cccn2c(=O)c3cc(C(=O)NC(C)c4ccccc4)c(=N)n(CCc4ccccc4)c3nc12 (configuration not stated)	6.26
COc1ccc(CNCc2cccc(-c3ccc(-c4nc5ccc(C(F)(F)F)cc5[nH]4)cc3)c2)cc1	6.89
Cc1cc(NS(=O)(=O)c2cccc(C(C)N3CCC(N4CCCC4)CC3)c2)ccc1C(C)C (configuration not stated)	6.09
Cc1ccc(Nc2nc3cc(Nc4ccnc(Nc5ccc(CS(C)(=O)=O)cc5)n4)ccc3o2)cc1	6.12
CCn1c(Sc2ccc([N+](=O)[O-])c(C#N)c2)nnc1-c1ccc(Cl)cc1	6.00
Cc1cnc(NCC2CCCCC2)nc1N[C@@H](CC(C)C)C(=O)Nc1ccccc1	6.06
CS(=O)(=O)Nc1cccc(-c2cnc3[nH]cc(-c4cccc(CN)c4)c3c2)c1	5.78
Cc1ccc(NC(=O)c2cn(-c3ccccc3)nc2-c2ccc(F)cc2)cc1[N+](=O)[O-]	6.00
Cc1ccc(NS(=O)(=O)c2cccs2)cc1-c1cccc(C(=O)Nc2ccc(F)cc2)c1	6.19
CN1CCN(Cc2ccc(-c3ccc4c(Nc5ccc(Oc6ccccn6)cc5)ccnc4c3)o2)CC1	6.85
CCCCN1CCN(CC(O)CNC(=O)Nc2ccc(Cl)cc2)CC1 (configuration not stated)	7.15
CC(Oc1ccc(Cl)cc1)C(=O)N(C)C1CCN(CCCCCNC(=O)/C=C/c2ccc(Cl)c(Cl)c2)CC1 (configuration not stated)	6.02
C=CCOc1cccc2c1CCN(CCN1CCC(NC(=O)c3ccc(-c4ccc(Cl)cc4)cc3)CC1)C2	6.17
Cc1cc(OCC(=O)Nc2ccc(-c3nc4ccccc4[nH]3)cc2)cc(C)c1Cl	6.13
N/C(=N/C(=NCCCCCCN=C(/N=C(/N)Nc1ccc(Cl)cc1)N1CCOCC1)N1CCOCC1)Nc1ccc(Cl)cc1	6.15
COc1ccccc1CNC(=O)c1cc(Br)cc(N2CCN(c3ccncc3)CC2)c1	6.02
